Data on 2 compounds can be found in paper PMC8198038, “In Vitro Evaluation of Antiproliferative Properties of Novel Organotin(IV) Carboxylate Compounds with Propanoic Acid Derivatives on a Panel of Human Cancer Cell Lines” (Molecules, 2021).

For assay [1], the system named is HT-29 (human colorectal adenocarcinoma) cells. The assay is described as follows: MTT assay, HT-29 cells. The class given is cell-based. As to conditions: MTT assay, 48 h incubation; read-out: IC50 (mean ± SD), HT-29, MTT. The method, then: (§1) The cell proliferations of ligand precursors and organotin(IV) compounds were evaluated with the aid of MTT (3-(4,5-dimethylthiazol-2-yl)-2,5-12 diphenyltetrazolium bromide) and CV (crystal violet) assays toward prostate (PC-3), colon (HT-29), breast (MCF-7) and hepatic (HepG2) cancer cell lines, and normal mouse embryonic fibroblast cells (NIH 3T3). The cells were cultivated in T75 flasks containing 10 mL of complete medium and kept at 37 °C and 5% CO2 […]. The nutrient medium was RPMI-1640 (PAA Laboratories) supplemented with 10% foetal bovine serum, L-glutamine, and penicillin/streptomycin (Sigma). Afterward, 5.000 cells of PC-3 and MCF-7 and 1.500 cells of HT-29 and HepG2 were transferred into 96 well-plates and used for MTT and CV assays. For microscopy investigations as well as FACS measurements (except for ROS/RNS measurements), MCF-7 cells were seeded overnight in 6-well plates (150,000 cells/well) in […] of complete medium. […] In all assays, control cells were untreated MCF-7 cells incubated for the same time period as treated cells and treated with appropriate reagents in various assays. BD FACS Aria III was used for flow cytometry experiments and results were analysed using BD FACSDiva software (BD Biosciences, Heidelberg, Germany) and Cyflogic (V 1.2.1, CyFlo Ltd., Turku, Finland). A fluorescence microscope Invitrogen EVOS FL 2 Auto 2 Cell Imaging System was used for visualization of the cells as well as for detection of fluorescence in the cells.
(§2) Ligands HL1‒HL3, organotin(IV) compounds, and cisplatin were investigated in 9 different concentrations (100, 50, 10, 5, 1, 0.5, 0.1, 0.05, 0.01 μM). Using the complete medium, each stock solution of the test compounds (20 mM in DMSO) was diluted to obtain the working solution. The final concentration of DMSO never overstepped 0.5%, which is non-toxic to the cells. Three technical replicates were performed for each concentration. The treated cells were incubated for 48 h at 37 °C under 5% CO2 and the viability of the cells was determined using MTT and CV assays according to the literature procedure. The IC50 values, defined as 50% inhibitory concentration, were calculated with a four-parameter logistic function and presented in a mean. All experiments were performed in triplicate.

Assay [2] concerns HepG2 (hepatocellular cancer) cells. The assay is described as follows: CV (crystal violet) assay, HepG2 cells. Format: cell-based, human. Particulars: CV assay, 48 h incubation; read-out: IC50 (mean ± SD), HepG2, CV. As for the experimental part:
as §1, §2

Assay [3] deals with MCF-7 cells. The assay is described as follows: Morphological analysis (AO and DAPI staining). The class given is cell-based, human. As to conditions: 24 h, IC50 or 2 × IC50. As for the experimental part: The morphological changes of MCF-7 cell death induced by Ph3SnL1 and cisplatin were studied by AO (acridine orange) and DAPI (4′,6-diamidino-2-phenylindole) staining, and examined under a fluorescence microscope. Acridine orange can cross the cell membrane and viable and early apoptotic cells can be detected. Chromatin condensation, seen as dense green areas, or membrane blebbing, both appearing in apoptosis, is easily proven by AO staining. After 24 h of treatment (IC50 and 2 × IC50 concentrations) the cells were stained with acridine orange (3 μg/mL AO in PBS), and observed with a fluorescence microscope (Fluorescence microscope-Invitrogen EVOS FL 2 Auto 2 Cell Imaging System). On the other hand, for the DAPI assay 0.5 mL of Triton (0.1% in PBS) was added to the treated cells after the fixing the cells with 0.5 mL of 4% paraformaldehyde (PFA) for 8 min. Thereafter, 0.5 mL of DAPI solution was used to stain the cells for 5 min in the dark. The morphological characteristics were visualized under a fluorescence microscope (Fluorescence microscope-Invitrogen EVOS FL 2 Auto 2 Cell Imaging System).

Assay [4] deals with HepG2 (hepatocellular cancer) cells. Briefly: MTT assay, HepG2 cells. Format: cell-based, human. As to conditions: MTT assay, 48 h incubation; read-out: IC50 (mean ± SD), HepG2, MTT. The method, then:
as §1, §2
Background: Formazan colour is commonly taken as a measure of viable cells.

Assay [5] concerns HT-29 (human colorectal adenocarcinoma) cells. Briefly: CV (crystal violet) assay, HT-29 cells. The class given is cell-based. As to conditions: CV assay, 48 h incubation; read-out: IC50 (mean ± SD), HT-29, CV. As for the experimental part: as §1, §2
In assay [6] the test system is MCF-7 cells. Briefly: Autophagy analysis (AO, flow cytometry). The class given is cell-based, human. Particulars: 48 h, IC50 concentration. The method, then:
Thereafter, the medium was collected into 15 mL Falcon tubes, while the cells were washed with 1 mL of PBS. The cells were detached using […] of trypsin. The deactivation of trypsination was performed with the formerly collected medium, while for the untreated cells, 1 mL of complete medium was added, and the cells were collected by the pipette tip harvesting technique from each well into a new Falcon tube, which then was centrifuged for 3 min at 1000 rpm. The supernatant was discarded, and the cells were washed with 1 mL of PBS, centrifuged for 3 min at 1000 rpm and then the supernatant was discarded. Afterwards, 500 μL of the acridine orange (AO) working solution was used to stain the cells which then were incubated for 30 min at 37 °C under 5% CO2. The deactivation of the staining process was performed by adding 1 mL of PBS, and after centrifugation for 3 min at 1000 rpm, the supernatant was discarded. The cells were resuspended in 1 mL of PBS and analysed by flow cytometry.
Background: In flow cytometry, cells or beads pass a laser one at a time.

Assay [7] concerns NIH3T3 (normal mouse embryonic fibroblast) cells. The assay is described as follows: CV (crystal violet) assay, NIH3T3 cells. The class given is cell-based. As to conditions: CV assay, 48 h incubation, normal cells; read-out: IC50 (mean ± SD), NIH3T3, CV. The method, then:
as §1, §2

The subject of assay [8] is MCF-7 cells. Briefly: Activation of caspases (apostat, flow cytometry). The class given is cell-based, human. An excerpt: The activation of caspase is closely linked to cell apoptosis, the controlled cell death, via the mitochondrial pathway or cell death receptor [23, 24]. […] Due to this, it can be concluded that cell death is accomplished through caspase-independent apoptosis. Moreover, as MCF-7 cell line is caspase-3 deficient, this was an anticipated result. Besides, the accomplishment of apoptosis induced with Ph3SnL1 in MCF-7 cells (confirmed with AO and DAPI assays) was not disturbed as this type of cell death may be activated through other death signals not involving caspase activation.
The cells were resuspended in 1 mL of PBS and analysed with flow cytometry.

Assay [9] concerns NIH3T3 (normal mouse embryonic fibroblast) cells. The assay is described as follows: MTT assay, NIH3T3 cells. Format: cell-based. As to conditions: MTT assay, 48 h incubation, normal cells; read-out: IC50 (mean ± SD), NIH3T3, MTT. As for the experimental part:
as §1, §2

The subject of assay [10] is PC-3 (human prostate cancer) cells. The assay is described as follows: CV (crystal violet) assay, PC-3 cells. As to conditions: CV assay, 48 h incubation; read-out: IC50 (mean ± SD), PC-3, CV. Format: cell-based. As for the experimental part:
as §1, §2

Assay [11] deals with MCF-7 (breast cancer) cells. The assay is described as follows: CV (crystal violet) assay, MCF-7 cells. The class given is cell-based, human. Particulars: for IC50: CV assay, 48 h incubation, read-out: IC50 (mean ± SD), MCF-7, CV. As for the experimental part: as §1, §2

As to `O=C(CCc1nc(-c2ccccc2)c(-c2ccccc2)o1)[O][Sn]([c]1ccccc1)([c]1ccccc1)[c]1ccccc1` [Ph3SnL1, (3-(4,5-Diphenyloxazol-2-yl)propanoato)triphenyltin(IV)], the IC50 amounted to 0.237 ± 0.012 µM in [1]; 0.366 ± 0.051 µM in assay [2]; 0.146 ± 0.028 µM in assay [4]; 0.465 ± 0.046 µM in [5]; 2.66 ± 0.52 µM in [7]; 2.17 ± 0.53 µM in assay [9]. The 50% inhibitory concentration (IC50) amounted to 0.556 ± 0.038 µM in assay [10] and 0.218 ± 0.025 µM in [11]. Moreover, in [3], the “morphological changes (AO and DAPI staining)” value was “notable morphological changes”. In assay [6], the “autophagy (AO)” value was “autophagy process is not triggered”. In addition, the “mode of cell death” value in assay [8] was “induces caspase-independent apoptosis”. The “caspase activation (apostat)” value in assay [8] (48 h, IC50 concentration) is “did not induce the activation of caspases”. Also, the “times more powerful antiproliferative activity than cisplatin in MCF-7 cells” value in assay [11] (CV assay IC50 values) is recorded as “up to 70 times”.
For the compound `N.N.[Cl][Pt][Cl]` [cisplatin, reference compound], the 50% inhibitory concentration (IC50) in [1] came out at 14.2 ± 0.73 µM; in assay [2] it was 3.65 ± 0.35 µM; in [4] it was 3.47 ± 0.46 µM; in [5], 16 ± 0.95 µM; in [7], 14.2 ± 1.95 µM; in [9], 8.81 ± 0.51 µM. For the same compound, the IC50 in assay [10] is 13 ± 0.45 µM; in [11], 15.8 ± 0.55 µM. Further, the “autophagy (AO)” value in assay [6] is “induces an autophagic response”.

By IC50 is commonly meant the concentration that inhibits the measured activity by half.
